According to patent publication US20190083455A1, “METHODS AND COMPOSITIONS FOR THE MODULATION OF BETA-ENDORPHIN LEVELS” (The General Hospital Corporation, priority 2014, published 2019):
Counter-ions that a name gives are not always drawn.

Assays:
[1] = system: C57Bl/6 mice; assay: Straub Tail measurement; assay type: in vivo; details: 10 mg/kg ip, scored 15 minutes after injection; day 23 of the UV exposure regimen
Procedure: Straub Tail measurement was performed as described (Bilbey et al., 1960). Scoring was on a scale of 0-2 according to the angle of elevation of the tail from the horizontal plane (0=tail relaxed and no elevation; 1=tail is rigid and elevated 1-10° from horizontal; 1.5=11-45° elevation and rigidity at the base of the tail; 2=46-90° elevation and rigidity at the base of the tail). At each time point, each mouse was scored every 10 seconds for 1 minute and the final score was the average of these six values. Mice undergoing the six-week UV exposure regimen or mock treatment were scored prior to the start of the regimen, once per week during the regimen, and once per week for 2 weeks following cessation of UV/mock treatment. On day 23 of the regimen, after weekly Straub Tail scoring, mice were injected (intraperitoneal (ip)) with either 10 mg/kg naloxone hydrochloride (Sigma, St. Louis, Mo.) or saline. Mice underwent Straub Tail scoring again 15 minutes following injection.
Exogenous opioids produce a dose-dependent, μ-opioid receptor-mediated contraction of the sacrococcygeus dorsalis muscle at the tail base in rodents, resulting in rigidity and elevation of the tail, a phenomenon called “Straub Tail” (Bilbey et al., 1960). […]

[2] = system: β-endorphin; assay: Plasma β-endorphin radioimmunoassay in UV/mock irradiated mice; assay type: in vivo; details: mice treated twice a week with Naloxone or Saline; daily UV or Mock irradiation
Text: Mice were dorsally shaved two days prior to the start of radiation exposure, then exposed to 50 mJ/cm^2/day of UVB, an empirically determined sub-erythematic dose, 5 days per week (Monday-Friday) for 6 weeks. If there were patches of fur re-growth, mice were re-shaved once every two weeks.
For blood draws, mice were placed in a standard restrainer and tail vein blood was collected in EDTA microvette tubes containing 0.6TIU aprotinin. Mice underwent blood draws prior to the start of radiation exposure, once per week during the radiation exposure regimen, and once per week for two weeks following cessation of the UV regimen. Blood was drawn in the mornings prior to radiation exposure on Fridays.
Tubes of collected blood were maintained on ice until centrifugation at 3500 RPM for 20 minutes at 4° C. Plasma was isolated and samples were stored at −80° C. until β-endorphin measurement. β-endorphin was quantified by radioimmunoassay (Phoenix Pharmaceuticals, Burlingame, Calif.).

## C=CCN1CC[C@]23c4c5ccc(O)c4O[C@H]2C(=O)CC[C@@]3(O)[C@H]1C5 [naloxone, naloxone hydrochloride]
[1]
  Straub Tail score: reversed the Straub Tail phenotype
[2]
  plasma β-endorphin: no significant effect of Naloxone treatment within either group
